We go through 1 sequence from US9134309B2, “Polypeptide display libraries and methods of making and using thereof” (The Regents of the University of California, priority 2003, dated 2015).

For the test, the target named is T1, streptavidin (Streptomyces avidinii, UniProt P22629).
T1 construct: purchased Molecular Probes (Eugene, Oreg.)
As to the kind of experiment: dissociation of SA-1 peptide grafted into YFP from streptavidin coated beads, flow cytometry. The test is classed as binding. To be noted: SA-1 inserted into YFP after Y145, soluble fusion protein, 1 μM biotin. The method, then: See Baird, G. S. et al. (1999) PNAS USA 96(20):11241-11246, which is herein incorporated by reference. […] See Bessette, P. H., et al. (1999) PNAS USA 96(24):13703-13708, which is herein incorporated by reference. […] Using flow cytometry, the dissociation rate constant of the steptavidin binding fluorescent protein was determined to be 0.02 s^−1.
The soluble protein was isolated using B-PER II bacterial protein extraction reagent (Pierce Biotechnology, Rockford, Ill.) following the manufacturer's protocol. About 10^7 streptavidin coated magnetic beads (Dynal Inc., Brown Deer, Wis.) were added to 40 μl of cell lysate and equilibrated at room temperature for 20 minutes. The beads were washed once in 2 ml of PBS; biotin was added to a final concentration of 1 μM, and immediately analyzed by flow cytometry as above. Lysate from a strain expressing YFP with a T7•tag insertion at the same location was used as a negative control.
A general note: A flow cytometer gives signals particle by particle.

T1 sequence (P22629 25-183): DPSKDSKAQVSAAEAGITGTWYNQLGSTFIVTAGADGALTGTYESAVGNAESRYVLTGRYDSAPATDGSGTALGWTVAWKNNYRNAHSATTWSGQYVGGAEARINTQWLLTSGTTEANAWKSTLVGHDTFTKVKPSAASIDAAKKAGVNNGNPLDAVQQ

In turn, RLEICQNVCYYLGTL [SA-1] registered a dissociation rate constant of 0.02 s⁻¹.
